Data: patent US20250326748A1, “COMPOUNDS AND METHODS FOR MODULATING SPLICING” (REMIX THERAPEUTICS INC., priority 2022, published 2025)
Where two headings read alike, the source gives them in different places.

What was measured:
[1] = test system: MYB mRNA; assay: Splicing RT-qPCR assay, MYB canonical (CJ) and alternative (AJ) junction mRNA; type: cell-based, human; conditions: for IC50: canonical junction mRNA; for AC50: alternative junction mRNA, read-out: MYB AJ (AC50, increase in AJ mRNA)
Summary of the method: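 Splicing switches are scored by TaqMan qPCR on cell lysate, comparing abundance of the normal exon junction with the new junction formed when the alternative exon is included. A673 results are referenced to PPIA and K562 results to GAPDH or GUSB. Compound exposure lasts 24 h.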

[2] = test system: K562 cells; assay: Cell viability, Cell Titer Glo 2.0 assay, K562; conditions: 72 hours
[3] = test system: SMN2 mRNA; assay: Splicing RT-qPCR panel, SMN2 canonical junction (CJ) mRNA; type: cell-based, human; conditions: read-out: SMN2 CJ (decrease in CJ mRNA levels, IC50)
Summary of the method: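 A673 cells (DMEM, 10% FBS) or K562 cells (IMDM, 10% FBS) treated 24 h at 37 °C with an 11-point 3-fold dilution, top 10 uM, DMSO ≤0.25%. Canonical-junction mRNA quantified in lysates by RT-qPCR, normalised to GAPDH, GUSB or PPIA and to DMSO (2^−ΔΔCt), then converted to % response.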

[4] = Homo sapiens, qPCR panel, read-out: MYB CJ (decrease in CJ mRNA levels, IC50)
[5] = Homo sapiens, RT-qPCR, A673 or K562 cells, 24 hours treatment
[6] = Homo sapiens, RT-qPCR, A673 or K562 cells, 24 hours treatment, read-out: MYB CJ (IC50, decrease in CJ mRNA)

Structure (SMILES)	IC50 [1, 4] [nM]	AC50 [1, 5] [nM]	IC50 [1, 6] [nM]	Effect on Cell Viability, K562 [2]	IC50 ([3]; Homo sapiens) [nM]	AC50 ([1]; RT-qPCR, A673 or K562 cells, 24 hours treatment) [nM]	IC50 ([1]; RT-qPCR, A673 or K562 cells, 24 hours treatment, read-out: MYB CJ (IC50, decrease in CJ mRNA)) [nM]	IC50 ([1]; qPCR panel, read-out: MYB CJ (decrease in CJ mRNA levels, IC50)) [nM]	IC50 [3] [nM]
Cc1nc2c(C)c(O)c(-c3cnc4cc(N5CCC(NC6CC6)C5)ccc4n3)cc2o1 (stereo not drawn) [Compound 182, 6-[6-[3-(cyclopropylamino)pyrrolidin-1-yl]quinoxalin-2-yl]-2,4-dimethyl-1,3-benzoxazol-5-ol]	< 100	< 100	< 100	A (<100 nM)	< 100				
CNC1CCN(c2cnc3nc(-c4cc5cn(C)nc5c(C)c4O)ccc3n2)C1 (stereo not drawn) [Compound 192, 2,7-dimethyl-5-{2-[3-(methylamino)337pyrrolidine-1-yl]pyrido[2,3-b]pyrazin-6-yl}indazol-6-ol]	100 to 1000	100 to 1000	100 to 1000	B (100-1000 nM)	< 100				
Cc1c(O)c(-c2ccc3nc(N4C[C@@H](C)N[C@@H](C)C4)cnc3n2)cc2cn(C)nc12 [Compound 195, 5-{2-[(3R,5S)-3,5-dimethylpiperazin-1-yl]pyrido[2,3-b]pyrazin-6-yl}-2,7-dimethylindazol-6-ol]	100 to 1000	100 to 1000	100 to 1000	B (100-1000 nM)	< 100				
Cc1c(O)c(-c2ccc3nc(N4CCNCC4)cnc3n2)cc2cn(C)nc12 [Compound 197, 2,7-dimethyl-5-[2-(piperazin-1-yl)pyrido[2,3-b]pyrazin-6-yl]indazol-6-ol]	100 to 1000	100 to 1000	100 to 1000	B (100-1000 nM)	< 100				
Cc1c(O)c(-c2ccc3nc(N4CCC(N(C)C)CC4)cnc3n2)cc2cn(C)nc12 [Compound 198]	< 100	100 to 1000	100 to 1000	B (100-1000 nM)	< 100				
Cc1cn2cc(-c3cnc4nc(C5CCNCC5)ccc4c3)cc(C)c2n1 [Compound 201]	< 100	> 10000	> 10000	C (1000-9999 nM)	< 100				
CN[C@@H]1CCN(c2cnc3nc(-c4cc(F)c5nc(C)cn5c4)ncc3c2)C1 [Compound 202, (3R)-1-(2-{8-fluoro-2-methylimidazo[1,2-a]pyridin-6-yl}pyrido[2,3-d]pyrimidin-6-yl)-N-methylpyrrolidin-3-amine]	< 100	100 to 1000	< 100	B (100-1000 nM)	< 100				
CC1CN(c2cnc3nc(-c4cc(F)c5nn(C)cc5c4)cc(Cl)c3c2)CCN1 (stereo not drawn) [Compound 203, 4-chloro-2-(7-fluoro-2-methyl-2H-indazol-5-yl)-6-(3-methylpiperazin-1-yl)-1,8-naphthyridine 2,2,2-trifluoroacetate]	100 to 1000	< 100	100 to 1000	B (100-1000 nM)	< 100				
Cc1c(O)c(-c2cc(Cl)c3cc(N(C)C4CCNC4)cnc3n2)cc2cn(C)nc12 (stereo not drawn) [Compound 204, 5-[4-chloro-6-(367pyrrolidine-3-ylamino)-1,8-naphthyridin-2-yl]-2,7-dimethylindazol-6-ol]	100 to 1000	100 to 1000	100 to 1000	B (100-1000 nM)	< 100				
C[C@@H]1CN(c2cnc3nc(-c4cc5cn(C)nc5c(F)c4O)ccc3c2)C[C@H](C)N1 [Compound 206]	< 100	< 100	< 100	A (<100 nM)	< 100				
Cc1c(O)c(-c2cc(Cl)c3cc(N4C[C@@H](C)N[C@@H](C)C4)cnc3n2)cc2cn(C)nc12 [Compound 207, 5-{4-chloro-6-[(3R,5S)-3,5-dimethylpiperazin-1-yl]-1,8-naphthyridin-2-yl}-2,7-dimethylindazol-6-ol]				A (<100 nM)		< 100	< 100	< 100	< 100
C[C@@H]1CN(c2cnc3nc(-c4cc5cn(C)nc5cc4O)cc(Cl)c3c2)C[C@H](C)N1 [Compound 208]	< 100	< 100	< 100	B (100-1000 nM)	< 100				
